In one data set the target is T1, Bcl-2 protein (Homo sapiens, UniProt P10415, DELINS35-91DVEENRTEAPEGTESE, form not given).
T1 construct: fused on or other part: A short piece of the Bcl-xL (Q07817) loop replaces Bcl-2 loop residues 35-91; The C-terminal membrane anchor is absent
Briefly: Bcl-2 binding affinity, fluorescence polarization with fluorescein-labeled BAX peptide. The note with it: Wang's equation, read-out: Target Binding Affinity Ki (Bcl-2). (In general: In fluorescence polarisation assays a small probe gives low polarisation when free and higher when bound to something large.)

The target of the next data set is Bcl-XL protein (Homo sapiens, UniProt Q07817). Nature of the data set: Bcl-XL binding affinity, fluorescence polarization with fluorescein-labeled BAD peptide. The note with it: Wang's equation, read-out: Target Binding Affinity Ki (Bcl-XL).
Sequence of Bcl-XL protein (Q07817 with tags, fused parts or gaps DEL45-84): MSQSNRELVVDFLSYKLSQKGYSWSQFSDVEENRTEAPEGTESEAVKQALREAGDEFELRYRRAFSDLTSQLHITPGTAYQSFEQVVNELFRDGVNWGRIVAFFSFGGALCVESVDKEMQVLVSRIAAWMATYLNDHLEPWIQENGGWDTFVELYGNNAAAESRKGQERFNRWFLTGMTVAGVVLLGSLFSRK
Data set [1] has as its system NCI-H146 human small cell lung carcinoma cells. Nature of the data set: Cellular efficacy in human tumor cell line (MTS viability assay). The class given is cell-based. Particulars: 10% human serum, 48 hours. How it is done:
NCI-H146 (ATCC, Manassas, Va.) human small cell lung carcinoma cells were plated 50,000 cells per well in 96-well tissue culture plates in a total volume of 100 μL tissue culture medium supplemented with 10% human serum (Invitrogen, Carlsbad, Calif.) instead of fetal bovine serum and treated with a 2-fold serial dilution of the compounds of interest from 10 μM to 0.020 μM. Each concentration was tested in duplicate at least 3 separate times. The number of viable cells following 48 hours of compound treatment was determined using the CellTiter 96® AQueous non-radioactive cell proliferation MTS assay according to manufacturer's recommendations (Promega Corp., Madison, Wis.).
Background: Tetrazolium assays rely on reduction of a dye to a coloured formazan, in cell work by metabolically active cells.

Data set [2] is described as follows: Pharmacokinetic evaluation in rat. Type of data set: in vivo. The note with it: male, Sprague-Dawley, plasma; for AUC(0-inf): single 5 mg/kg oral dose, Table 1, read-out: Pharmacokinetic area under the plasma concentration Curve (rat) AUC0-∞; for AUC / Cmax: 5 mg/kg, oral. How it is done:
The pharmacokinetic behavior of compounds of this disclosure was determined following a single 2 mg/kg intravenous or 5 mg/kg oral dose in male Sprague-Dawley derived rats (n=3 per group). The compounds were prepared as 2 mg/mL solution in a 10% DMSO in PEG-400 formulation for both oral and intravenous administration. The 1 mL/kg intravenous dose was administered as a slow bolus (about 1-2 minutes) in the jugular vein of a rat under light ether anesthetic. The oral dose was administered by gavage. Serial blood samples were obtained from a tail vein of each rat prior 0.1 (IV only), 0.25, 0.5, 1, 1.5, 2, 3, 4, 6, 8 and 24 hours after dosing. The heparinized samples were thoroughly mixed and placed in an ice bath. Plasma was separated by centrifugation and stored frozen prior to analysis.
The compounds of interest were separated from the plasma using protein precipitation with acetonitrile. A plasma (100-200 μL, sample or spiked standard) aliquot was combined with 50 μL of internal standard (structurally related analog prepared in acetonitrile) and 1 ml acetonitrile in a 96-well polypropylene deep well plate. The plates were vortexed for 30 seconds followed by centrifugation (3500 rpm×15 minutes, 4° C.). In an automated manner, the supernatant was transferred to a clean 96-well plate. The samples were evaporated to near dryness on a Micro-Vap™ under a stream of dry nitrogen over low heat (˜37° C.). The samples were reconstituted vortexing with 0.2 mL 5% DMSO in acetonitrile. A 0.1-0.2 ml aliquot of acetonitrile: 0.1% trifluoroacetic acid (20:80, by volume) was added to each well, followed by an additional 30 second vortexing. The plates were centrifuged (3500 rpm×15 minutes, 4° C.) prior to HPLC-MS/MS analysis. Samples were analyzed simultaneously with spiked plasma standards. All samples from each study were analyzed as a single batch on the LC-MS/MS.
The compounds of interest and the internal standard were separated from each other and co-extracted contaminants on a 50×3 mm Keystone Betasil CN 5 μm column with an acetonitrile: 0.1% trifluoroacetic acid mobile phase (50:50, by volume) at a flow rate of 0.7 ml/min. Analysis was performed on a Sciex API 300™ Biomolecular Mass Analyzer using a heated nebulizer interface. Peak areas of the title compounds and internal standards were determined using the Sciex MacQuan™ software. Calibration curves were derived from peak area ratio (parent drug/internal standard) of the spiked rat plasma standards using least squares linear regression of the ratio versus the theoretical concentration. The methods were generally linear over the range of the standard curve (correlation coefficients >0.99) with an estimated quantitation limit of 0.01 μg/mL. The plasma concentration data for each animal were submitted to multi-exponential curve fitting using WinNonlin. The area under the plasma concentration-time curve from 0 to t hours (time of the last measurable plasma concentration) after dosing (AUC0-t) was calculated using the linear trapezoidal rule for the plasma concentration-time profiles. The residual area extrapolated to infinity, determined as the final measured plasma concentration (Ct) divided by the terminal elimination rate constant (β), was added to AUC0-t to produce the total area under the curve (AUC0-∞). Ki values shown in the tables below were determined using Wang's equation (Wang Z X., An Exact Mathematical Expression For Describing Competitive Binding Of Two Different Ligands To A Protein Molecule. FEBS Lett. 1995; 360:111-4)).

Setting [3] is: NCI-H146, Table 1, read-out: NCI-H146 Cellular Efficacy EC50.
[4] abbreviates: NCI-H146, Table 3, read-out: NCI-H146 Cellular Efficacy H146 EC50.
Where [5] appears, read: Table 3, read-out: Pharmacokinetic area under the plasma concentration Curve (rat) AUC.
The mark [6] stands for this setting: Table 3, read-out: Pharmacokinetic peak plasma concentration (rat) Cmax.
Setting [7] is: NCI-H146, Table 2, read-out: NCI-H146 Cellular Efficacy H146, EC50.
The mark [8] stands for this setting: Table 2, read-out: Pharmacokinetic area under the plasma concentration curve (rat) AUC.
Where [9] appears, read: Table 2, read-out: Pharmacokinetic peak plasma concentration (rat) Cmax.

The text below walks through data of US8624027B2, “Combination therapy for treating cancer and diagnostic assays for use therein” (AbbVie Inc., priority 2005, dated 2014).

Like-named read-outs stand apart in the source and are kept apart here.

T1 sequence (P10415 with tags, fused parts or gaps with the stated changes): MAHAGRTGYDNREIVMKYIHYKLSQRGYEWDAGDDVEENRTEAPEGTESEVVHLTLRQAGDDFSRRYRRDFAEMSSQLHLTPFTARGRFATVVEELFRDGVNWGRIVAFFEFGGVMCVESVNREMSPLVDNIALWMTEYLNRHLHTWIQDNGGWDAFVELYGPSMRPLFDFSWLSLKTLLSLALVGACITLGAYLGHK
Excerpt for Bcl-2 protein: Binding affinity of compounds having formula (II) to Bcl-2 protein is indicia of their inhibition of the activity of this protein.
Description for Bcl-XL protein: A mixture comprising 125 μL per well of assay buffer (20 mM phosphate buffer (pH 7.4), 1 mM EDTA, 50 mM NaCl, 0.05% PF-68), 6 nM of Bcl-XL protein (prepared as described in Science 1997, 275, 983-986), 1 nM fluorescein-labeled BAD peptide (prepared in-house) and the DMSO solution of the compound was shaken for 2 minutes and placed in a LJL Analyst (LJL Bio Systems, CA). A negative control (DMSO, 15 nM BAD peptide, assay buffer) and a positive control (DMSO, 1 nM BAD peptide, 6 nM Bcl-XL, assay buffer) were used to determine the range of the assay. Polarization was measured at room temperature using a continuous Fluorescein lamp (excitation 485 nm, emission 530 nm). Percentage of inhibition was determined by (1-((mP value of well-negative control)/range))×100%.

In the case of `O=C(NS(=O)(=O)c1ccc(N[C@H](CCN2CC3CC2CO3)CSc2ccccc2)c(S(=O)(=O)C(F)(F)F)c1)c1ccc(N2CCN(CC3=C(c4ccc(Cl)cc4)CCCCC3)CC2)cc1` (stereo partly drawn) [Example 12, N-(4-(4-((2-(4-chlorophenyl)cyclohept-1-en-1-yl)methyl)piperazin-1-yl)benzoyl)-4-(((1R)-3-(2-oxa-5-azabicyclo[2.2.1]hept-5-yl)-1-((phenylsulfanyl)methyl)propyl)amino)-3-((trifluoromethyl)sulfonyl)benzenesulfonamide], the Ki on Bcl-2 protein and at Bcl-XL protein was at most 1 nM throughout. For the same compound, the EC50 in data set [1] (setting [3]) was 27.1 nM. In data set [2], the AUC(0-inf) worked out at 2.07 µM·h.

As for `CN(C)CC[C@H](CSc1ccccc1)Nc1ccc(S(=O)(=O)NC(=O)c2ccc(N3CCN(CC4=C(c5ccc(Cl)cc5)CCCC4)CC3)cc2)cc1S(=O)(=O)C(F)(F)Cl` [Example 18, 3-((chloro(difluoro)methyl)sulfonyl)-N-(4-(4-((2-(4-chlorophenyl)cyclohex-1-en-1-yl)methyl)piperazin-1-yl)benzoyl)-4-(((1R)-3-(dimethylamino)-1-((phenylsulfanyl)methyl)propyl)amino)benzenesulfonamide], the Ki on Bcl-2 protein and at Bcl-XL protein was at most 1 nM in each case. The EC50 is 15.4 nM in data set [1] (setting [3]) and 15 nM in data set [1] (setting [4]). Also, the AUC in data set [2] (setting [5]) worked out at 0.609 µM·h. In addition, in data set [2] (setting [6]), the Cmax amounted to 59 nM. In addition, in data set [2], the AUC(0-inf) was found to be 0.61 µM·h.

Consider `O=C(NS(=O)(=O)c1ccc(N[C@H](CCN2C[C@@H]3C[C@H]2CO3)CSc2ccccc2)c(S(=O)(=O)C(F)(F)Cl)c1)c1ccc(N2CCN(CC3=C(c4ccc(Cl)cc4)CCCC3)CC2)cc1` [Example 6, 3-((chloro(difluoro)methyl)sulfonyl)-N-(4-(4-((2-(4-chlorophenyl)cyclohex-1-en-1-yl)methyl)piperazin-1-yl)benzoyl)-4-(((1R)-3-((1S,4S)-2-oxa-5-azabicyclo[2.2.1]hept-5-yl)-1-((phenylsulfanyl)methyl)propyl)amino)benzenesulfonamide], for which the Ki at Bcl-2 protein and at Bcl-XL protein was at most 1 nM in each case. Moreover, the 50% effective concentration (EC50) in data set [1] (setting [3]) is 1 nM; in data set [1] (setting [4]), 10 nM. Further, the AUC in data set [2] (setting [5]) was 0.913 µM·h. In addition, the Cmax in data set [2] (setting [6]) worked out at 113 nM. In addition, the AUC(0-inf) in data set [2] is 0.91 µM·h.

Take `CN(C)CC[C@H](CSc1ccccc1)Nc1ccc(S(=O)(=O)NC(=O)c2ccc(N3CCN(CC4=C(c5ccc(Cl)cc5)CCCC4)CC3)cc2)cc1C(F)(F)F` [H, reference compound]: in data set [1] (setting [4]), the concentration for a half-maximal effect (EC50) turned out to be 410 nM. Also, the AUC in data set [2] (setting [5]) is 1.97 µM·h. The Cmax in data set [2] (setting [6]) turned out to be 215 nM.

On to `O=C(NS(=O)(=O)c1ccc(N[C@H](CCN2CCCC2)CSc2ccccc2)c(S(=O)(=O)C(F)(F)F)c1)c1ccc(N2CCN(CC3=C(c4ccc(Cl)cc4)CCCC3)CC2)cc1` [Example 27, N-(4-(4-((2-(4-chlorophenyl)cyclohex-1-en-1-yl)methyl)piperazin-1-yl)benzoyl)-4-(((1R)-1-((phenylsulfanyl)methyl)-3-(pyrrolidin-1-yl)propyl)amino)-3-((trifluoromethyl)sulfonyl)benzenesulfonamide], for which the Ki at Bcl-2 protein and at Bcl-XL protein was at most 1 nM each time. Moreover, in data set [1] (setting [3]), the concentration giving a half-maximal response (EC50) was 18.5 nM. In addition, in data set [2], the AUC(0-inf) is 2.08 µM·h.

Take `O=C(NS(=O)(=O)c1ccc(N[C@H](CCN2CCOCC2)CSc2ccccc2)c(S(=O)(=O)C(F)(F)F)c1)c1ccc(N2CCN(Cc3ccccc3-c3ccc(Cl)cc3)CC2)cc1` [Example 39, N-(4-(4-((4′-chloro(1,1′-biphenyl)-2-yl)methyl)-1-piperazinyl)benzoyl)-4-(((1R)-3-(4-morpholinyl)-1-((phenylsulfanyl)methyl)propyl)amino)-3-((trifluoromethyl)sulfonyl)benzenesulfonamide]: the Ki on Bcl-2 protein and at Bcl-XL protein was at most 1 nM each time. Moreover, the figures for the EC50 in data set [1] (setting [3]) and in data set [1] (setting [7]) were 82.7 nM and 83 nM, respectively. Besides, in data set [2] (setting [8]), the AUC was 1.66 µM·h. The Cmax in data set [2] (setting [9]) was 290 nM. For the same compound, the AUC(0-inf) in data set [2] stood at 1.66 µM·h.

With `CN(C)CC[C@H](CSc1ccccc1)Nc1ccc(S(=O)(=O)NC(=O)c2ccc(N3CCN(Cc4ccccc4-c4ccc(Cl)cc4)CC3)cc2)cc1C(F)(F)F` [A, reference compound], the EC50 in data set [1] (setting [7]) was determined as 1600 nM. For the same compound, the AUC in data set [2] (setting [8]) came out at 4.41 µM·h. Besides, the Cmax in data set [2] (setting [9]) was determined as 371 nM.

`CN(C)CC[C@H](CSc1ccccc1)Nc1ccc(S(=O)(=O)NC(=O)c2ccc(N3CCN(CC4=C(c5ccc(Cl)cc5)CCCC4)CC3)cc2)cc1[N+](=O)[O-]` [G, reference compound]: the EC50 in data set [1] (setting [4]) worked out at 26 nM. The AUC in data set [2] (setting [5]) amounted to 0.507 µM·h. Further, the Cmax in data set [2] (setting [6]) stood at 57 nM.

Consider `CN(C)CC[C@H](CSc1ccccc1)Nc1ccc(S(=O)(=O)NC(=O)c2ccc(N3CCN(Cc4ccccc4-c4ccc(Cl)cc4)CC3)cc2)cc1C#N` [C, reference compound], for which, in data set [1] (setting [7]), the EC50 is 1810 nM. The AUC in data set [2] (setting [8]) was 1.92 µM·h. Also, the Cmax in data set [2] (setting [9]) amounted to 315 nM.

Regarding `CN(C)CC[C@H](CSc1ccccc1)Nc1ccc(S(=O)(=O)NC(=O)c2ccc(N3CCN(CC4=C(c5ccc(Cl)cc5)CC(C)(C)CC4)CC3)cc2)cc1S(=O)(=O)C(F)(F)Cl` [Example 28, 3-((chloro(difluoro)methyl)sulfonyl)-N-(4-(4-((2-(4-chlorophenyl)-4,4-dimethylcyclohex-1-en-1-yl)methyl)piperazin-1-yl)benzoyl)-4-(((1R)-3-(dimethylamino)-1-((phenylsulfanyl)methyl)propyl)amino)benzenesulfonamide], the Ki on Bcl-2 protein and at Bcl-XL protein was at most 1 nM throughout.

Consider “3-((chloro(difluoro)methyl)sulfonyl)-N-(4-(4-((2-(4-chlorophenyl)-4,4-dimethylcyclohex-1-en-1-yl)methyl)piperazin-1-yl)benzoyl)-4-(((1R)-3-(dimethylamino)-1-((phenylsulfanyl)methyl)propyl)amino)benzenesulfonamide [Example 28]”, for which the 50% effective concentration (EC50) in data set [1] (Table 1, read-out: NCI-H146 Cellular Efficacy EC50) worked out at 24.2 nM.

Consider `CN(C)CC[C@H](CSc1ccccc1)Nc1ccc(S(=O)(=O)NC(=O)c2ccc(N3CCN(Cc4ccccc4-c4ccc(Cl)cc4)CC3)cc2)c(F)c1C(F)(F)F` [D, reference compound], for which, in data set [1] (setting [7]), the 50% effective concentration (EC50) came to 7330 nM. Besides, the AUC in data set [2] (setting [8]) turned out to be 3.83 µM·h. For the same compound, the Cmax in data set [2] (setting [9]) stood at 386 nM.

`CN(C)CC[C@H](CSc1ccccc1)Nc1ccc(S(=O)(=O)NC(=O)c2ccc(N3CCN(Cc4ccccc4-c4ccc(Cl)cc4)CC3)cc2)cc1[N+](=O)[O-]` [B, reference compound]: the concentration for a half-maximal effect (EC50) in data set [1] (setting [7]) amounted to 63 nM. Further, in data set [2] (setting [8]), the AUC worked out at 0.283 µM·h. For the same compound, the Cmax in data set [2] (setting [9]) came out at 39 nM.

Broadly, the Ki is the dissociation constant of the complex between target and ligand, obtained from inhibition or displacement. Usually EC50 stands for the concentration that produces a half-maximal response.
